Patent US7985832B2, “Antimicrobial cathelicidin peptides” (Kansas State University Research Foundation, priority 2005, dated 2011)
Ends that are not written are not given here.

How the values were obtained:
skin S. aureus = conditions: literature (Murakami et al.); cited from earlier work
dog erythrocytes = type: cell-based
Method: (§1) Hemolytic activity of K9CATH was determined (Skerlavag, FEBS Lett., 463:58 (1999); Yu et al., J. Pept. Res., 60:1 (2002)). Briefly, 4 mL of canine blood was collected in EDTA-containing blood collection tubes (Becton Dickinson, Franklin Lakes, N.J.). Whole blood was then centrifuged at 10,000×g for 1 minute at room temperature. Plasma was discarded (supernatant) and erythrocytes were washed twice with PBS, re-suspended to a 0.5% (vol/vol) solution in PBS, and 90 μL dispensed into 96-well microtiter plates. Different concentrations of K9CATH dissolved in 0.01% acetic acid were added in duplicate to dog cells and incubated at 37° C. for 2 hours. Following centrifugation at 8000×g for 10 minutes, supernatants were transferred to new 96-well microtiter plates and monitored by measuring the absorbance at […] for released hemoglobin. Controls for 0 and 100% hemolysis consisted of cells suspended in PBS only and in 1.0% Triton X-100, respectively. Percentage of hemolysis (%) was calculated as [(OD415 nm, peptide solution−OD415 nm, PBS only)/(OD415 nm, 1% Triton X-100−OD 415 nm, PBS only)]×100. The N-terminal 18 amino acid segment of bovine myeloid antimicrobial peptide 28 (BMAP-28(1-18)) (Skerlavaj et al., J. Biol. Chem., 271:28375 (1996); Yu et al., J. Pept. Res., 60:1 (2002); Risso et al., Cell. Immunol., 189:107 (1998)) was used as a positive control. […]

Listeria monocytogenes = type: cell-based
From the text: (§2) Microorganisms against which a polypeptide of the invention is active include prokaryotic and eukaryotic cells such as Gram-negative and Gram-positive bacteria, yeast and protozoa. Non-limiting examples include Listeria monocytogenes, Staphylococcus aureus, Escherichia coli, Klebsiella pneumoniae, Salmonella typhimurium, Pseudomonas aeruginosa, Proteus mirabilis, Salmonella enteritidis, Neisseria gonorrhoeae, Ureaplasma canigenitalium, Ureaplasma urealyticum, Candida albicans, Trichomonas vaginalis, Treponema pallidum or Chlamydia trachomatis, or a spoilage organism. […] MIC antimicrobial activity refers to complete inhibition of the growth of a microorganism, as judged by the naked eye, after a selected period of incubation. The method used to determine MIC is that set forth in Sang et al., Infection and Immunity, 2611-20 (May, 2005).
(§3) Microorganisms evaluated were: Candida albicans ATCC 11006 and 14053, Escherichia coli ATCC 25922, 700336, 700378, and BAA-457, Klebsiella pneumoniae ATCC 10031, Listeria monocytogenes ATCC 19155, Proteus mirabilis ATCC 12453, Pseudomonas aeruginosa ATCC 10145, Salmonella Enteritidis ATCC 13076, Salmonella Typhimurium ATCC 13311, Staphylococcus aureus ATCC 10832, Ureaplasma canigenitalium ATCC 51252, and Ureaplasma urealyticum ATCC 27619. C. albicans was grown overnight (35° C.) on potato dextrose agar and managed according to NCCSL standards (Pfaller et al., Manual NCCLS #M27-A2, 6th ed., Wayne, Pa. (2002)). U. canigenitalium and U urealyticum were stored at −20° C. in urea broth 10B (per ATCC specifications) and thawed at 5° C. the night prior to assay. All other bacteria were maintained on trypticase soy agar (Difco, Detroit, Mich.) plates at 37° C. Mid-logarithmic phase bacteria were grown by transferring single cell colonies into trypticase soy broth (Difco), followed by incubation and homogenization for 3 hours at 37° C. Bacterial pellets were obtained after centrifugation for 10 minutes at 4° C. at 900×g, and washed once, followed by suspension in 10 mM sodium phosphate buffer (PB, pH 7.4, [Na+]=17.83 mM). Initial bacterial concentrations were determined (Ferraro et al., Manual NCCLS #M7-A6, 6th ed., Wayne, Pa. (2003)). Initial bacterial populations of 10^8 CFU/mL were obtained at an optical density (OD) of 0.1 at 600 nm. C. albicans were suspended in 10 mM PB to a McFarland standard of 0.5 for an initial 10^8 CFU/ml following NCCLS standards (Pfaller et al., Manual NCCLS #M27-A2, 6th ed., Wayne, Pa. (2002)), except that the recommended 0.85% saline solution was replaced with 10 mM PB. All microbial serial dilutions were performed in 10 mM PB to obtain 10^3 CFU/mL working dilutions.
(§4) A modified broth microdilution method (Pfaller et al., Manual NCCLS #M27-A2, 6th ed., Wayne, Pa. (2002); Ferraro et al., Manual NCCLS #M7-A6, 6th ed., Wayne, Pa. (2003)) was used to determine the antimicrobial activity of K9CATH (Sang et al., Infect. Immun., 73:2611 (2005)). Briefly, 50 μL of the K9CATH working stocks were added to the wells of a microtiter plate in which 25 μL of 30 mM sodium PB (pH 7.4, [Na+]=53.49 mM), 25 μL H2O, and 50 μL of the microbial suspension had been previously combined. Microtiter plates were incubated at 37° C. for 2 hours in a shaking incubator (100 RPM), followed by the addition of 150 μL of the corresponding nutritive broth. Antimicrobial activity was determined by establishing the minimal inhibitory concentrations (MIC), defined as the lowest concentration in which microbial growth was prevented, as indicated by the lack of turbidity or color change in the medium (urea broth 10B) after 24 hours of incubation at 37° C. Treated gonorrheal suspension (50 μL) was spot-plated on chocolate agar, and the MIC was defined as the lowest concentration in which no colonies developed after 24 hours of incubation at 37° C. in 5% CO2. […]

Klebsiella pneumoniae = type: cell-based
From the text: as §2, §3, §4

Ureaplasma urealyticum = type: cell-based
From the text: as §2, §3, §4

Pseudomonas aeruginosa = type: cell-based
From the text: as §2, §3, §4

Salmonella Enteritidis = type: cell-based
From the text: as §2, §3, §4

Escherichia coli = type: cell-based
From the text: as §2, §3, §4

Proteus mirabilis = type: cell-based
From the text: as §2, §3, §4

Salmonella Typhimurium = type: cell-based
From the text: as §2, §3, §4

chicken erythrocytes = type: cell-based
Method: FIG. 9. Hemolytic Activity of Canine Cathelicidin. The assays were performed with chicken red blood cells as previously described (49). The data shown represent the mean of duplicate values from two independent experiments.
as §1, with “only)]×100.” for “only)]×100. The N-terminal 18 amino acid segment of bovine myeloid antimicrobial peptide 28 (BMAP-28(1-18)) (Skerlavaj et al., J. Biol. Chem., 271:28375 (1996); Yu et al., J. Pept. Res., 60:1 (2002); Risso et al., Cell. Immunol., 189:107 (1998)) was used as a positive control.”

Q: For “LL-37: human cathelicidin antimicrobial peptide (LLGDFFRKSKEKIGKEFKRIVQRIKDFLRNLVPRTES; Antibacterial peptide LL-37; UniProt P49913 134-170, looked up)”, which “concentration inhibiting skin S. aureus” value (skin S. aureus) is on record?
A: > 64 µM

Q: Which results are given for “RLKELITTGGQKIGEKIRRIGQRIKDFFKNLQPREEKS [K9CATH]”?
A: lower in vitro hemolytic activity compared to BMAP-18 (dog erythrocytes): 10-20 fold; MIC (Listeria monocytogenes): 0.44 µM; MIC (Klebsiella pneumoniae): 1.11 µM; MIC (Ureaplasma urealyticum): 44.33 µM; MIC (Pseudomonas aeruginosa): 1.11 µM; MIC (Salmonella Enteritidis): 0.44 µM; MIC (Escherichia coli): 1.11 µM; MIC (Proteus mirabilis): 1.11 µM; MIC (Salmonella Typhimurium): 1.11 µM; lower in vitro hemolytic activity compared to BMAP-18 (chicken erythrocytes): 10-20 fold
